From article PMC6130634 (Pharmaceutical Biology, 2017)

Assays:
[1] = Oral pharmacokinetics of ChA in beagle plasma; assay type: in vivo, beagles; conditions: dog, 60 mg/kg
[2] = Stability of ChA in beagle urine under various storage conditions; assay type: in vitro ADME
[3] = Stability of ChA in beagle faeces under various storage conditions; assay type: in vitro ADME

AUC(0-inf) [1]: 6320 ± 1850 ng·h/mL
AUC(0-t) [1]: 5590 ± 1410 ng·h/mL
Cmax [1]: 2350 ± 483 ng/mL
Tmax [1]: 1.86 ± 0.499 h
half-life [1]: 0.911 ± 0.187 h
time ChA was stable ([2]; processed urine, 4 °C): at least 8 h
time ChA was stable ([2]; urine, room temperature): ≥ 6 h
time ChA was stable ([2]; urine, −70 °C): at least 20 d
time ChA was stable ([3]; faeces, room temperature): ≥ 6 h
time ChA was stable ([3]; faeces, −70 °C): ≥ 170 h
time ChA was stable ([3]; processed faeces, 4 °C): at least 8 h
Structure (SMILES): O=C(/C=C/c1ccc(O)c(O)c1)O[C@@H]1C[C@](O)(C(=O)O)C[C@@H](O)[C@H]1O [ChA, Chlorogenic acid]
